# What was measured:
# SMMC-7721 [1] = experiment: Potency index, ratio of DDP IC50 to compound IC50 for human SMMC7721 cells; assay type: functional
# A549 = experiment: Antiproliferative activity against human A549 cells assessed as reduction in cell viability incubated for 48 hrs by MTS assay; assay type: functional, cell-based; settings: A549, 48 h
# HL-60 = experiment: Antiproliferative activity against human HL60 cells assessed as reduction in cell viability incubated for 48 hrs by MTS assay; assay type: functional, cell-based; settings: HL-60, 48 h
# SW480 = experiment: Antiproliferative activity against human SW480 cells assessed as reduction in cell viability incubated for 48 hrs by MTS assay; assay type: functional, cell-based; settings: SW480, 48 h
# MCF7 = experiment: Antiproliferative activity against human MCF7 cells assessed as reduction in cell viability incubated for 48 hrs by MTS assay; assay type: functional, cell-based; settings: MCF7, 48 h
# SMMC-7721 [2] = experiment: Antiproliferative activity against human SMMC7721 cells assessed as reduction in cell viability incubated for 48 hrs by MTS assay; assay type: functional, cell-based; settings: SMMC-7721, 48 h
# SMMC-7721 [3] = experiment: Cell cycle arrest in human SMMC7721 cells assessed as accumulation of cells at sub-G1 phase at 1 uM after 24 hrs by propidium iodide staining-based flow cytometric analysis (reference value: 2.33 +/- 0.17%); assay type: functional
# SMMC-7721 [4] = experiment: Induction of apoptosis in human SMMC7721 cells assessed as necrotic cells at 1 uM after 48 hrs by annexin V-FITC/propidium iodide staining based flow cytometry (reference value: 0.6%); assay type: functional
# SMMC-7721 [5] = experiment: Cell cycle arrest in human SMMC7721 cells assessed as accumulation of cells at G0/G1 phase at 2 uM after 24 hrs by propidium iodide staining-based flow cytometric analysis (reference value: 62.58 +/- 0.35%); assay type: functional
# SMMC-7721 [6] = experiment: Cell cycle arrest in human SMMC7721 cells assessed as accumulation of cells at S phase at 0.5 uM after 24 hrs by propidium iodide staining-based flow cytometric analysis (reference value: 24.5 +/- 0.05%); assay type: functional
# SMMC-7721 [7] = experiment: Cell cycle arrest in human SMMC7721 cells assessed as accumulation of cells at S phase at 4 uM after 24 hrs by propidium iodide staining-based flow cytometric analysis (reference value: 24.5 +/- 0.05%); assay type: functional
# SMMC-7721 [8] = experiment: Cell cycle arrest in human SMMC7721 cells assessed as accumulation of cells at G2/M phase at 0.5 uM after 24 hrs by propidium iodide staining-based flow cytometric analysis (reference value: 8.72 +/- 0.42%); assay type: functional
# SMMC-7721 [9] = experiment: Cell cycle arrest in human SMMC7721 cells assessed as accumulation of cells at G0/G1 phase at 4 uM after 24 hrs by propidium iodide staining-based flow cytometric analysis (reference value: 62.58 +/- 0.35%); assay type: functional
# SMMC-7721 [10] = experiment: Induction of apoptosis in human SMMC7721 cells assessed as viable cells at 2 uM after 48 hrs by annexin V-FITC/propidium iodide staining based flow cytometry (reference value: 94.7%); assay type: functional; settings: SMMC-7721, 48 h, read-out: Activity
# SMMC-7721 [11] = experiment: Induction of apoptosis in human SMMC7721 cells assessed as necrotic cells at 2 uM after 48 hrs by annexin V-FITC/propidium iodide staining based flow cytometry (reference value: 0.6%); assay type: functional
# SMMC-7721 [12] = experiment: Induction of apoptosis in human SMMC7721 cells assessed as early apoptotic cells at 2 uM after 48 hrs by annexin V-FITC/propidium iodide staining based flow cytometry (reference value: 1.68%); assay type: functional
# SMMC-7721 [13] = experiment: Cell cycle arrest in human SMMC7721 cells assessed as accumulation of cells at G0/G1 phase at 0.5 uM after 24 hrs by propidium iodide staining-based flow cytometric analysis (reference value: 62.58 +/- 0.35%); assay type: functional
# SMMC-7721 [14] = experiment: Cell cycle arrest in human SMMC7721 cells assessed as accumulation of cells at G0/G1 phase at 1 uM after 24 hrs by propidium iodide staining-based flow cytometric analysis (reference value: 62.58 +/- 0.35%); assay type: functional
# SMMC-7721 [15] = experiment: Cell cycle arrest in human SMMC7721 cells assessed as accumulation of cells at sub-G1 phase at 0.5 uM after 24 hrs by propidium iodide staining-based flow cytometric analysis (reference value: 2.33 +/- 0.17%); assay type: functional
# SMMC-7721 [16] = experiment: Induction of apoptosis in human SMMC7721 cells assessed as late apoptotic cells at 1 uM after 48 hrs by annexin V-FITC/propidium iodide staining based flow cytometry (reference value: 3.05%); assay type: functional
# SMMC-7721 [17] = experiment: Induction of apoptosis in human SMMC7721 cells assessed as late apoptotic cells at 2 uM after 48 hrs by annexin V-FITC/propidium iodide staining based flow cytometry (reference value: 3.05%); assay type: functional
# SMMC-7721 [18] = experiment: Cell cycle arrest in human SMMC7721 cells assessed as accumulation of cells at S phase at 1 uM after 24 hrs by propidium iodide staining-based flow cytometric analysis (reference value: 24.5 +/- 0.05%); assay type: functional
# SMMC-7721 [19] = experiment: Cell cycle arrest in human SMMC7721 cells assessed as accumulation of cells at G2/M phase at 1 uM after 24 hrs by propidium iodide staining-based flow cytometric analysis (reference value: 8.72 +/- 0.42%); assay type: functional
# SMMC-7721 [20] = experiment: Induction of apoptosis in human SMMC7721 cells assessed as viable cells at 1 uM after 48 hrs by annexin V-FITC/propidium iodide staining based flow cytometry (reference value: 94.7%); assay type: functional; settings: SMMC-7721, 48 h, read-out: Activity
# SMMC-7721 [21] = experiment: Cell cycle arrest in human SMMC7721 cells assessed as accumulation of cells at G2/M phase at 4 uM after 24 hrs by propidium iodide staining-based flow cytometric analysis (reference value: 8.72 +/- 0.42%); assay type: functional
# SMMC-7721 [22] = experiment: Cell cycle arrest in human SMMC7721 cells assessed as accumulation of cells at G0/G1 phase after 24 hrs by propidium iodide staining-based flow cytometric analysis; assay type: functional
# SMMC-7721 [23] = experiment: Induction of apoptosis in human SMMC7721 cells assessed as early apoptotic cells at 1 uM after 48 hrs by annexin V-FITC/propidium iodide staining based flow cytometry (reference value: 1.68%); assay type: functional
structure (smiles),measurement,setting,value
C[C@@H]1CC[C@@]2(OC1)O[C@H]1C[C@H]3[C@@H]4CC=C5C[C@H](n6c[n+](Cc7ccccc7Br)c7ccccc76)CC[C@]5(C)[C@H]4CC[C@]3(C)[C@H]1[C@@H]2C.[Br-],Ratio IC50,SMMC-7721 [1],54
same,IC50,A549,4.47 µM
same,IC50,HL-60,0.34 µM
same,IC50,SW480,2.1 µM
same,IC50,MCF7,2.14 µM
same,IC50,SMMC-7721 [2],0.21 µM
Cc1cc2c(cc1C)[n+](Cc1ccccc1Br)cn2[C@@H]1CC[C@@]2(C)C(=CC[C@H]3[C@@H]4C[C@@H]5O[C@]6(CC[C@@H](C)CO6)[C@@H](C)[C@@H]5[C@@]4(C)CC[C@@H]32)C1.[Br-],Activity,SMMC-7721 [3],2.43%
same,Activity,SMMC-7721 [4],1.27%
same,Activity,SMMC-7721 [5],73.61%
same,Activity,SMMC-7721 [6],19.23%
same,Activity,SMMC-7721 [7],14.22%
same,IC50,A549,0.67 µM
same,Activity,SMMC-7721 [8],3.49%
same,IC50,HL-60,0.49 µM
same,Activity,SMMC-7721 [9],78.1%
same,viability at 2 µM,SMMC-7721 [10],27.8%
same,Activity,SMMC-7721 [11],6.62%
same,Activity,SMMC-7721 [12],0.69%
same,Activity,SMMC-7721 [13],73.61%
same,Activity,SMMC-7721 [14],78.1%
same,Activity,SMMC-7721 [15],2.4%
same,Activity,SMMC-7721 [16],18.7%
same,Activity,SMMC-7721 [17],64.9%
same,Activity,SMMC-7721 [18],14.22%
same,IC50,SW480,0.79 µM
same,IC50,MCF7,0.73 µM
same,Activity,SMMC-7721 [19],4.67%
same,viability at 1 µM,SMMC-7721 [20],79.6%
same,IC50,SMMC-7721 [2],0.44 µM
same,Activity,SMMC-7721 [21],4.67%
same,Activity,SMMC-7721 [22],Dose-dependent effect
same,Activity,SMMC-7721 [23],0.373%
COc1ccc(C(=O)C[n+]2ccn([C@H]3CC[C@H]4[C@@H]5CC=C6C[C@@H](OC(C)=O)CC[C@]6(C)[C@H]5CC[C@]34C)c2)cc1,IC50,A549,10.7 µM
same,IC50,HL-60,2.2 µM
same,IC50,SW480,6.06 µM
same,IC50,MCF7,3.46 µM
same,IC50,SMMC-7721 [2],4.31 µM
C[C@]12CC[C@H]3[C@@H](CC=C4C[C@@H](O)CC[C@@]43C)[C@@H]1CC[C@@H]2n1cc[n+](CC(=O)c2cccc(Br)c2)c1,IC50,A549,> 20 µM
same,IC50,HL-60,6.42 µM
same,IC50,SW480,9.78 µM
same,IC50,MCF7,7.25 µM
same,IC50,SMMC-7721 [2],14.9 µM
COc1ccc(C(=O)C[n+]2cn([C@@H]3CC[C@@]4(C)C(=CC[C@H]5[C@@H]6C[C@@H]7O[C@]8(CC[C@@H](C)CO8)[C@@H](C)[C@@H]7[C@@]6(C)CC[C@@H]54)C3)c3cc(C)c(C)cc32)cc1,IC50,A549,5.02 µM
same,IC50,HL-60,0.74 µM
same,IC50,SW480,2.01 µM
same,IC50,MCF7,2.31 µM
same,IC50,SMMC-7721 [2],0.44 µM
C[C@@H]1CC[C@@]2(OC1)O[C@H]1C[C@H]3[C@@H]4C[C@H](n5cc[n+](Cc6ccccc6Br)c5)[C@]56C[C@H]5CC[C@]6(C)[C@H]4CC[C@]3(C)[C@H]1[C@@H]2C,IC50,A549,6.6 µM
same,IC50,HL-60,1.24 µM
same,IC50,SW480,6.33 µM
same,IC50,MCF7,3.86 µM
same,IC50,SMMC-7721 [2],4.58 µM
Cc1cc2c(cc1C)[n+](CC(=O)c1ccccc1)cn2[C@@H]1CC[C@@]2(C)C(=CC[C@H]3[C@@H]4CC[C@H]([C@H](C)CCCC(C)C)[C@@]4(C)CC[C@@H]32)C1,IC50,A549,8.11 µM
same,IC50,HL-60,0.28 µM
same,IC50,SW480,10.4 µM
same,IC50,MCF7,9.87 µM
same,IC50,SMMC-7721 [2],1.77 µM
C[C@@H]1CC[C@@]2(OC1)O[C@H]1C[C@H]3[C@@H]4CC=C5C[C@H](n6c[n+](Cc7ccc8ccccc8c7)c7ccccc76)CC[C@]5(C)[C@H]4CC[C@]3(C)[C@H]1[C@@H]2C,IC50,A549,1.25 µM
same,IC50,HL-60,1.02 µM
same,IC50,SW480,1.8 µM
same,IC50,MCF7,2.31 µM
same,IC50,SMMC-7721 [2],0.88 µM
C[C@@H]1CC[C@@]2(OC1)O[C@H]1C[C@H]3[C@@H]4C[C@H](n5cc[n+](CC(=O)c6ccccc6)c5)[C@]56C[C@H]5CC[C@]6(C)[C@H]4CC[C@]3(C)[C@H]1[C@@H]2C,IC50,A549,7.76 µM
same,IC50,HL-60,2.69 µM
same,IC50,SW480,7.39 µM
same,IC50,MCF7,5.5 µM
same,IC50,SMMC-7721 [2],7.38 µM
CC(=O)O[C@H]1CC[C@@]2(C)C(=CC[C@H]3[C@@H]4CC[C@H](n5cc[n+](CC(=O)c6ccc7ccccc7c6)c5)[C@@]4(C)CC[C@@H]32)C1,IC50,A549,4.39 µM
same,IC50,HL-60,1.26 µM
same,IC50,SW480,4.45 µM
same,IC50,MCF7,2.1 µM
same,IC50,SMMC-7721 [2],1.75 µM
C[C@@H]1CC[C@@]2(OC1)O[C@H]1C[C@H]3[C@@H]4CC=C5C[C@H](n6cc[n+](Cc7ccccc7Br)c6)CC[C@]5(C)[C@H]4CC[C@]3(C)[C@H]1[C@@H]2C,IC50,A549,1.22 µM
same,IC50,HL-60,0.43 µM
same,IC50,SW480,1.66 µM
same,IC50,MCF7,1.41 µM
same,IC50,SMMC-7721 [2],0.95 µM
CC(C)CCC[C@@H](C)[C@H]1CC[C@H]2[C@@H]3CC=C4C[C@@H](n5ccnc5)CC[C@]4(C)[C@H]3CC[C@]12C,IC50,A549,> 20 µM
same,IC50,HL-60,> 20 µM
same,IC50,SW480,> 20 µM
same,IC50,MCF7,> 20 µM
same,IC50,SMMC-7721 [2],> 20 µM
Cc1cc2c(cc1C)[n+](CC(=O)c1ccc3ccccc3c1)cn2[C@@H]1CC[C@@]2(C)C(=CC[C@H]3[C@@H]4C[C@@H]5O[C@]6(CC[C@@H](C)CO6)[C@@H](C)[C@@H]5[C@@]4(C)CC[C@@H]32)C1,IC50,A549,5.53 µM
same,IC50,HL-60,0.45 µM
same,IC50,SW480,3.1 µM
same,IC50,MCF7,3.05 µM
same,IC50,SMMC-7721 [2],0.57 µM
CC(C)CCC[C@@H](C)[C@H]1CC[C@H]2[C@@H]3CC=C4C[C@H](n5cc[n+](CC(=O)c6cccc(Br)c6)c5)CC[C@]4(C)[C@H]3CC[C@]12C,IC50,A549,7.22 µM
same,IC50,HL-60,9.91 µM
same,IC50,SW480,6.33 µM
same,IC50,MCF7,8.51 µM
same,IC50,SMMC-7721 [2],1.7 µM

# Reference: ChEMBL document CHEMBL4340516, “Synthesis and antitumor activity of novel steroidal imidazolium salt derivatives” (Eur J Med Chem, 2019)
